Experimental data from US8592446B2, “[1,10]-phenanthroline derivatives for the treatment of neurodegenerative or haematological diseases” (Noscira, S.A., priority 2007, dated 2013).

Key:
[1] = system: SH-SY5Y human neuroblastoma cells; assay: Protection against 6-OHDA-induced cell death, condition B (no fetal bovine serum); format: cell-based; conditions: preincubated 1 hour, 6-OHDA 50 μM 24 hours, read-out: Protect. 6-OHDA (−FBS) (minimum concentration with neuroprotective effect)
From the text: (§1) The aim of this experiment is to determine the protective effect of the compounds of formula (1) against the toxicity caused by 6-OHDA. This toxin induces a cell death similar to which occurs in Parkinson's disease, destroying dopaminergic neurons (“MPTP and 6-hydroxydopamine-induced neurodegeneration as models for Parkinson's disease: neuroprotective strategies”; Grunblatt E, et al.; J Neurol. 2000 Apr; 247 Suppl 2:II95-102).
(§2) Two or three days before the experiment, the SH-SY5Y human neuroblastoma cells are seeded into 96-well culture plate at a density of 10^4 cells/well. Cells are exposed to the treatment with 6-OHDA and, finally, cell death is measured by LDH quantification. As positive control we used NAC.
• B) NAC and the compound of formula (I) are preincubated during 1 hour before the treatment with 6-OHDA 50 μM during 24 hours. The assay is performed in a medium without any fetal bovine serum.
(§3) For each compound the minimum concentration of compound of formula (I) at which a neuroprotective effect is shown.

[2] = system: Aβ (1-40) secretion by CHO7W cells (stably transfected with human APP751 wt cDNA); assay: Inhibition of Aβ(1-40) secretion (ELISA, cellular supernatants); format: cell-based; conditions: Aβ 1-40 ELISA
From the text: To quantitate Aβ secretion ELISA-based method was used. The assay consists in detection of antigen by selective monoclonal anti-Aβ-antibodies at two different epitopes forming a “Sandwich-complex”, that is detected by colorimetric measure due to the binding of a secondary antibody conjugated with peroxidase that catalyses the conversion of a substrate or chromogen, TMB, into a coloured product, directly proportional to the peptide quantity in the sample. The Aβ production has been analyzed by ELISA, using a colorimetric commercial kit: Immunoassay Kit Human β Amyloid 1-40 (Biosource).
Aβ (1-40) were quantified from cellular supernatants. An APP-transfected cell line has been employed for the experiments: CHO7W (stably transfected with human APP751 wt cDNA). The cells were grown in a culture medium consisting of DMEM supplemented with 2% Fetal bovine serum, 1% penicillin-streptomycin, 1% L-glutamine and 200 μg/ml G418. Cells are seeded in 96-well culture microplate, at 5000 cells/well and treatment with different compounds at different concentrations is performed 24 hour after seeding.
OM99-2 (H-5108, Bachem), a BACE inhibitor, was used as Aβ secretion reduction positive control in all the Aβ secretion studies. The cells were treated with this compound at 3 μM concentration, culture media were collected at 24 hours.

[3] = system: SH-SY5Y human neuroblastoma cells; assay: Protection against 6-OHDA-induced cell death, condition A (10% foetal bovine serum); format: cell-based; conditions: preincubated 2 hours, 6-OHDA 75 μM 16 hours, read-out: Protect. 6-OHDA (+ FBS) (minimum concentration with neuroprotective effect)
From the text: as §1, §2
• A) NAC and the compound of formula (I) are preincubated during 2 hours before the treatment with 6-OHDA 75 μM during 16 hours. The assay is performed in medium containing 10% Foetal bovine serum.
as §3

[4] = Chelating ability with Cu (II) (absorbance spectra); format: physicochemical; conditions: for Ability to complex Cu (II) (spectrum of mixture vs sum of individual spectra): 200 μM, PBS 10 mM, pH 7.4, FIG. 6
Experimental: FIG. 6 depicts the absorbance spectra of the mixture of Cu (II) and each of the quelating ligands (Compound 4, Compound 7, Compound 8). Concentration of Cu(II) and all compounds 200 μM, PBS 10 mM, pH 7.4.
FIG. 7 is the absorbance spectra of the complex Cu(II)-Compound 10. Concentration 200 μM, PBS 10 mM, pH 7.4.
(§4) Therefore, it may be observed that the compounds of formula (I) have a high affinity to Fe (II) in comparison to the rest of metalic ions tested.

[5] = Chelating ability with Fe (III) (absorbance spectra); format: physicochemical; conditions: PBS 10 mM, pH 7.4, ligand and Fe(III) 200 μM, FIG. 1
Experimental: FIG. 1 is an absorbance spectrum of compounds 4, 7, 8 and 10 in absence and presence of Fe(III). PBS 10 mM, pH 7.4. Concentration of ligand and Fe(III), 200 μM.
Only one line is observed, as the spectra are overlapping (see FIG. 1).

SH-SY5Y cells = assay: Neuroprotection against Aβ25-35 toxicity (LDH assay); format: cell-based; conditions: Homo sapiens, pre-treated 1 hour, 200 μM Aβ25-35 24 hours, read-out: Protect. beta-Amyloid25-35 (minimum concentration showing neuroprotection)
Experimental: In order to evaluate potential neuroprotection of compounds, SH-SY5Y cells, cultured in 96-well plates, were pre-treated for 1 hour with the compound at different concentrations and then exposed 24 hours to 200 μM Aβ25-35 (Neosystem) to induce extensive oxidative stress and cell death. The ability of the compound of protecting against this toxicity is then evaluated by measuring intracellular LDH, using the colorimetric LDH assay.
It is widely accepted that the neurotoxic activity of Aβ resides within amino acids 25-35 (see e.g. Yankner B A et al., (1990) Neurotrophic and neurotoxic effects of amyloid β protein: reversal by tachykinin neuropeptides; Science 250:279-282).

[6] = Chelating ability with Fe(II) (absorbance spectra); format: physicochemical; conditions: for Formation constant: Fe (II) complex 1:3 (ML3); for Dissociation grade / Stoichiometry / ε approx.: Fe (II) complex; for Ability to complex Fe (II) (spectrum of mixture vs sum of individual spectra): PBS 10 mM, pH 7.4 or 8, FIGS. 2-5
Experimental: FIG. 2 is an absorbance spectrum of the complex Fe(II)-Compound 4. Concentration of Fe(II) and Compound 4, 200 μM, PBS 10 mM, pH 8.
FIG. 3 is an absorbance spectrum of the complex Fe(II)-Compound 7. Concentration of Fe(II) and Compound 7 , 400 μM, PBS 10 mM, pH 8.
FIG. 4 is an absorbance spectrum of the complex Fe(II)-Compound 8. Concentration of Fe(II) and Compound 8, 200 μM, PBS 10 mM, pH 7.4.
FIG. 5 is an absorbance spectrum of the complex Fe(II)-Compound 10. Concentration of Fe(II) and Compound 10, 100 μM, PBS 10 mM, pH 7.4.
as §4

[7] = Chelating ability with Zn (II) (absorbance spectra); format: physicochemical; conditions: for Ability to complex Zn(II): PBS 10 mM, pH 7.4, FIGS. 8-11; for Dissociation grade / Stoichiometry / ε approx.: Zn (II) complex, pH 7.4, expecting time 24 h (4, 7) or 4 h (8, 10)
Experimental: FIG. 8 represents the absorbance spectra of the complex Zn(II)-Compound 4. Concentration 200 μM, PBS 10 mM, pH 7.4.
Concentration 180 μM, PBS 10 mM, pH 7.4.
Concentration 100 μM, PBS 10 mM, pH 7.4.
Concentration 20 μM, PBS 10 mM, pH 7.4. […]

[8] = pH 8*, expecting time 30 min (4) or 60 min (7)
[9] = Zn (II) complex 1:2 (ML2), pH 7.4, expecting time 24 h (7) or 4 h (8, 10)
[10] = pH 7.4, expecting time Immediate
[11] = Cu (II) complex, pH 7.4, expecting time 2 h

Row | Compound | minimal effective concentration [1] [µM] | Inhibition secretion beta-amyloid (minimum concentration) [2] [mM] | minimal effective concentration [3] [µM] | Ability to complex Cu (II) (spectrum of mixture vs sum of individual spectra) [4] | Ability to complex Fe (III) (change in absorbance spectra) [5] | minimal effective concentration (SH-SY5Y cells) [µM] | Formation constant [6, 8] | Dissociation grade [6, 8] | Stoichiometry [6, 8] | ε approx. [6, 8] [L/mol/cm] | Ability to complex Fe (II) (spectrum of mixture vs sum of individual spectra) [6] | Ability to complex Zn(II) [7] | Dissociation grade [7] | Stoichiometry [7] | ε approx. [7] [L/mol/cm] | Formation constant [7, 9] | Formation constant [6, 10] | Dissociation grade [6, 10] | Stoichiometry [6, 10] | ε approx. [6, 10] [L/mol/cm] | also measured
1 | CSc1cc(/C=N/O)nc2c1ccc1cccnc12 [Compound 4, 4-Methylsulfanyl-[1,10]phenanthroline-2-carbaldehyde oxime] | 0.5 | 0.05 | 0.05 | none of the ligands are able to complex the Cu (II) | no change in the absorbance spectra | 0.5 | 8.2 ± 0.5 · 10^12 | 0.147 ± 0.002 | 1:3 (ML3) | ~1800 | able to complex the Fe (II) | complexed with Zn(II) to an extent | 46 ± 7 | 1:1 (ML) | ~1000 |  |  |  |  |  | Formation constant ([7]; Zn (II) complex 1:1 (ML), pH 7.4, expecting time 24 h): 2.2 ± 0.6 · 10^4 l/mol
2 | CC(C)Sc1cc(/C=N/O)nc2c1ccc1cccnc12 [Compound 7, 4-Isopropylsulfanyl-[1,10]phenanthroline-2-carbaldehyde oxime] | 0.5 |  | 0.05 | none of the ligands are able to complex the Cu (II) | no change in the absorbance spectra |  | 2.0 ± 0.6 · 10^15 | 0.023 ± 0.002 | 1:3 (ML3) | ~280 | able to complex the Fe (II) | complexed with Zn(II) to an extent | 13.4 ± 0.7 | 1:2 (ML2) | ~840 | 2.2 ± 0.6 · 10^10 l^2/mol^2 |  |  |  |  | minimal effective concentration ([2]; read-out: Inhibition secretion beta-amyloid (minimum concentration)): 1 nM
3 | COCCOc1cc(/C=N/O)nc2c1ccc1cccnc12 [Compound 8, 4-(2-Methoxy-ethoxy)-[1,10]phenanthroline-2-carbaldehyde oxime] | 0.5 | 1 | 0.05 | none of the ligands are able to complex the Cu (II) | no change in the absorbance spectra | 0.5 |  |  |  |  | able to complex the Fe (II) | complexed with Zn(II) to an extent | 7.7 ± 0.6 | 1:2 (ML2) | ~7100 | 1.4 ± 0.6 · 10^11 l^2/mol^2 | 4.0 ± 1.3 · 10^17 | 0.022 ± 0.006 | 1:3 (ML3) | ~1600 | 
4 | CCN(CC)CCOc1cc(/C=N/O)nc2c1ccc1cccnc12 [Compound 10, 4-(2-Diethylamino-ethoxy)-[1,10]phenanthroline-2-carbaldehyde oxime] | 0.5 | 1 | 0.05 |  | no change in the absorbance spectra | 0.5 |  |  |  |  | able to complex the Fe (II) | complexed with Zn(II) to an extent | 3.7 ± 0.6 | 1:2 (ML2) | ~9400 | 1.7 ± 0.4 · 10^13 l^2/mol^2 | 5.0 ± 1.0 · 10^17 | 0.019 ± 0.004 | 1:3 (ML3) | ~6700 | Formation constant ([4]; Cu (II) complex 1:1 (ML), pH 7.4, expecting time 2 h): 4.4 ± 0.6 · 10^6 l/mol; Dissociation grade [4, 11]: 3.8 ± 0.4; Stoichiometry [4, 11]: 1:1 (ML); ε approx. [4, 11]: ~400 L/mol/cm
